Activity calls are given as the source filed them.
Assays:
Mus musculus [1] = assay: Anticonvulsant activity in maximal electroshock induced seizure mouse model assessed as reduction in convulsions at 100 mg/kg, po; type: functional, organism-based
Rattus norvegicus [2] = assay: Anticonvulsant activity in amygdala kindling rat model assessed as change in after discharge threshold at 100 mg/kg, po relative to control; type: functional
Mus musculus [3] = assay: Anticonvulsant activity in po dosed 6-Hz induced seizure mouse model; type: functional
Mus musculus [4] = assay: Neurotoxicity in po dosed mouse by rotarod test; type: functional
Mus musculus [5] = assay: Anticonvulsant activity in po dosed maximal electroshock induced seizure mouse model assessed as reduction in convulsions; type: functional
Mus musculus [6] = assay: Anticonvulsant activity in maximal electroshock induced seizure mouse model assessed as reduction in convulsions at 50 mg/kg, po; type: functional, organism-based
Mus musculus [7] = assay: Anticonvulsant activity in subcutaneous pentylenetetrazole-induced seizure mouse model assessed as reduction in convulsions at 50 mg/kg, po; type: functional, organism-based
Mus musculus [8] = assay: Anticonvulsant activity in maximal electroshock induced seizure mouse model assessed as reduction in convulsions at 25 mg/kg, po; type: functional, organism-based
Mus musculus [9] = assay: Anticonvulsant activity in subcutaneous pentylenetetrazole-induced seizure mouse model assessed as reduction in convulsions at 100 mg/kg, po; type: functional, organism-based
Rattus norvegicus [10] = assay: Anticonvulsant activity in amygdala kindling rat model assessed as change in after discharge duration at 100 mg/kg, po (reference value: -5.5%); type: functional
Mus musculus [11] = assay: Therapeutic index, ratio of TD50 for neurotoxicity in po dosed mouse to ED50 for po dosed 6-Hz induced seizure mouse model
Mus musculus [12] = assay: Therapeutic index, ratio of TD50 for neurotoxicity in po dosed mouse to ED50 for po dosed maximal electroshock induced seizure mouse model
Rattus norvegicus [13] = assay: Anticonvulsant activity in amygdala kindling rat model assessed as change in after discharge threshold at 30 mg/kg, po relative to control; type: functional
Rattus norvegicus [14] = assay: Anticonvulsant activity in amygdala kindling rat model assessed as change in after discharge duration at 30 mg/kg, po (reference value: -5.5%); type: functional
Mus musculus [15] = assay: Anticonvulsant activity in po dosed subcutaneous pentylenetetrazole-induced seizure mouse model assessed as reduction in convulsions; type: functional
Rattus norvegicus [16] = assay: Anticonvulsant activity in amygdala kindling rat model assessed as change in after discharge duration at 300 mg/kg, po (reference value: -5.5%); type: functional
Rattus norvegicus [17] = assay: Anticonvulsant activity in amygdala kindling rat model assessed as change in after discharge threshold at 600 mg/kg, po relative to control; type: functional
Rattus norvegicus [18] = assay: Anticonvulsant activity in amygdala kindling rat model assessed as change in after discharge duration at 600 mg/kg, po (reference value: -5.5%); type: functional
Rattus norvegicus [19] = assay: Anticonvulsant activity in amygdala kindling rat model assessed as change in after discharge threshold at 300 mg/kg, po relative to control; type: functional
Mus musculus [20] = assay: Anticonvulsant activity in ip dosed maximal electroshock induced seizure mouse model assessed as suppression in hindlimb tonic extension; type: functional
Mus musculus [21] = assay: Anticonvulsant activity in ip dosed subcutaneous pentylenetetrazole-induced seizure mouse model assessed no observable episode of clonic seizure; type: functional
Mus musculus [22] = assay: Anticonvulsant activity in subcutaneous pentylenetetrazole-induced seizure mouse model assessed as reduction in convulsions at 25 mg/kg, po; type: functional, organism-based

CN(C)S(=O)(=O)c1ccccc1-c1ccco1
Activity (Mus musculus [1]): inactive

CNS(=O)(=O)c1ccccc1-c1ccccc1F
Activity (Rattus norvegicus [2]): 352.5% | ED50 (Mus musculus [3]): 53 mg/kg | TD50 (Mus musculus [4]): 107 mg/kg | ED50 (Mus musculus [5]): 16 mg/kg | Activity (Mus musculus [6]): Active | Activity (Mus musculus [7]): Active | Activity (Mus musculus [8]): Active | Activity (Mus musculus [1]): Active | Activity (Mus musculus [9]): Active | Activity (Rattus norvegicus [10]): -1.4% | Ratio TD50/ED50 (Mus musculus [11]): 2 | Ratio TD50/ED50 (Mus musculus [12]): 6.7

NS(=O)(=O)Cc1noc2ccccc12 [ZONISAMIDE]
Activity (Rattus norvegicus [2]): 45.9% | Activity (Rattus norvegicus [13]): 5.1% | Activity (Rattus norvegicus [14]): 7% | ED50 (Mus musculus [5]): 20 mg/kg | Activity (Rattus norvegicus [10]): -37.6% | ED50 (Mus musculus [15]): > 500 mg/kg

CCS(=O)(=O)c1ccccc1-c1ccccc1
Activity (Mus musculus [1]): inactive | Activity (Mus musculus [9]): Active

CNS(=O)(=O)c1ccccc1-c1ccccc1
Activity (Mus musculus [6]): Active | Activity (Mus musculus [7]): inactive | Activity (Mus musculus [1]): Active

NS(=O)(=O)c1ccccc1-c1ccccc1
Activity (Mus musculus [6]): Active | Activity (Mus musculus [1]): Active

CNS(=O)(=O)c1ccccc1-c1ccccc1Cl
Activity (Mus musculus [6]): Active | Activity (Mus musculus [1]): Active

CNS(=O)(=O)c1ccccc1-c1ccc(Cl)cc1
Activity (Mus musculus [8]): inactive | Activity (Mus musculus [1]): Active

CCCC(CCC)C(=O)[O-].[Na+] [VALPROATE SODIUM]
Activity (Rattus norvegicus [16]): 11.1% | Activity (Rattus norvegicus [17]): 81.3% | ED50 (Mus musculus [3]): 394 mg/kg | Activity (Rattus norvegicus [18]): -22.5% | Activity (Rattus norvegicus [19]): -5.4% | TD50 (Mus musculus [4]): 396 mg/kg | ED50 (Mus musculus [5]): 337 mg/kg

CN(C)S(=O)(=O)c1ccccc1-c1cccs1
Activity (Mus musculus [1]): inactive | Activity (Mus musculus [9]): inactive

CN(C)S(=O)(=O)c1ccccc1-c1ccoc1
Activity (Mus musculus [1]): inactive

CN(C)S(=O)(=O)c1ccccc1-c1ccncc1
Activity (Mus musculus [1]): inactive

CCCNS(=O)(=O)c1ccccc1-c1ccccc1
Activity (Mus musculus [1]): Active

CNS(=O)(=O)c1ccccc1-c1ccccc1OC
Activity (Mus musculus [1]): inactive | Activity (Mus musculus [9]): inactive

CS(=O)(=O)c1ccccc1-c1ccccc1F
Activity (Mus musculus [1]): Active

CNS(=O)(=O)c1ccccc1-c1ccc(F)cc1
Activity (Mus musculus [6]): Active | Activity (Mus musculus [1]): Active | Activity (Mus musculus [9]): inactive

CN(C)S(=O)(=O)c1cccc(Cl)c1
Activity (Mus musculus [6]): Active

CC1(C)O[C@@H]2[C@@H](CO[C@@]3(COS(N)(=O)=O)OC(C)(C)O[C@@H]23)O1 [TOPIRAMATE]
ED50 (Mus musculus [20]): 33 mg/kg | ED50 (Mus musculus [21]): > 800 mg/kg

CNS(=O)(=O)c1ccccc1-c1cccc(OC)c1
Activity (Mus musculus [1]): inactive

CNS(=O)(=O)c1ccccc1-c1ccc(OC)cc1
Activity (Mus musculus [1]): inactive | Activity (Mus musculus [9]): inactive

CNS(=O)(=O)c1ccccc1-c1cccc(Cl)c1
Activity (Mus musculus [8]): inactive | Activity (Mus musculus [1]): Active

CN(C)S(=O)(=O)c1ccccc1-c1cccnc1
Activity (Mus musculus [9]): inactive

O=S(=O)(c1ccccc1-c1ccccc1)C(F)(F)F
Activity (Mus musculus [1]): inactive | Activity (Mus musculus [9]): inactive

CNS(=O)(=O)c1ccccc1-c1cccc(F)c1
Activity (Mus musculus [8]): inactive | Activity (Mus musculus [1]): Active

CN(C)S(=O)(=O)c1ccccc1-c1ccccn1
Activity (Mus musculus [9]): inactive

CCNS(=O)(=O)c1ccccc1-c1ccccc1
Activity (Mus musculus [6]): Active | Activity (Mus musculus [8]): inactive | Activity (Mus musculus [1]): Active | Activity (Mus musculus [22]): inactive

CN(C)S(=O)(=O)c1ccccc1-c1ccccc1
Activity (Mus musculus [6]): inactive | Activity (Mus musculus [7]): inactive

— ChEMBL document CHEMBL4052797, “N-alkyl-[1,1'-biphenyl]-2-sulfonamide derivatives as novel broad spectrum anti-epileptic drugs with efficacy equivalent to that of sodium valproate” (2017)
